Some results are limits rather than exact numbers.

The assay deals with 6-phosphofructo-2-kinase/fructose-2,6-bisphosphatase 3 (Homo sapiens, UniProt Q16875). Briefly: Inhibition of iPFK2 (unknown origin) assessed as reduction in enzyme-mediated fructose-6-phosphate phosphorylation by measuring ATP consumption incubated for 3 hrs by luciferase-luciferin-coupled chemiluminescence assay.
6-phosphofructo-2-kinase/fructose-2,6-bisphosphatase 3, sequence (Q16875 whole entry): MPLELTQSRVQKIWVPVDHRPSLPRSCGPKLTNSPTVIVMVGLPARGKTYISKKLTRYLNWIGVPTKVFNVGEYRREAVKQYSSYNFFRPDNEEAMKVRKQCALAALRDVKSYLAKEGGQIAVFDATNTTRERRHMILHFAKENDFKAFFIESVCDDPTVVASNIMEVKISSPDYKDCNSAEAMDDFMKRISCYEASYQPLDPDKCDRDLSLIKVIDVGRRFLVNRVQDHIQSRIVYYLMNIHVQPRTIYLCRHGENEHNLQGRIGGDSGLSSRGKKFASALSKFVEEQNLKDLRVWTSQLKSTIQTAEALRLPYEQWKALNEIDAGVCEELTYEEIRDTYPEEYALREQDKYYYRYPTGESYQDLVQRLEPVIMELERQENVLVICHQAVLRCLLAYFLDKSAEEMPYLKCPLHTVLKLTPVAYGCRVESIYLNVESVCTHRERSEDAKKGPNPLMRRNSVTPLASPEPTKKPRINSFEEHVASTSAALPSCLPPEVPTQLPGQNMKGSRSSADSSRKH
A word on the IC50: it is the concentration at which inhibition is half-maximal. Regarding `COc1cccc(-c2cc(NC(C)c3cccc(S(N)(=O)=O)c3)nc(C)n2)c1` (stereo unspecified), the IC50 is greater than 1000 nM.
Next, `COc1cccc([C@H](C)Nc2cc(-c3cccc(OC(F)(F)F)c3)nc(C)n2)c1`: greater than 1000 nM.
Next, `Cc1nc(NC(C)c2ccnc(Cl)c2)cc(-c2ccc3ncsc3c2)n1` (stereo unspecified): 500 nM.
The value for `CNC(=O)COc1cccc(C(C)Nc2cc(-c3cccc(OC)c3)nc(C)n2)c1` (stereo unspecified) was 500 nM.
On to `Cc1nc(NC(C)c2cccc(OCc3noc(C)n3)c2)cc(-c2ccc3ncsc3c2)n1` (stereo unspecified), for which the IC50 turned out to be 500 nM.
The value for `COc1cccc(-c2cc(NC(C)c3cccc(S(=O)(=O)NCC#N)c3)nc(C)n2)c1` (stereo unspecified) was 500 nM.
Next, `CCOC(=O)CCCOc1cccc(C(C)Nc2cc(-c3ccc4ccn(C)c4c3)nc(C)n2)c1` (stereo unspecified): 500 nM.
The value for `Cc1ccc([C@H](C)Nc2cc(-c3ccc4ccn(C)c4c3)nc(C)n2)cc1` was 500 nM; that for `CNC(=O)COc1cccc(C(C)Nc2cc(-c3ccc4c(c3)OCO4)nc(C)n2)c1` (stereo unspecified) was 500 nM.
With `Cc1nc(NC[C@@H](C)c2ccccc2)cc(-c2ccc3ncsc3c2)n1`, the IC50 was greater than 1000 nM.
Next, `Cc1nc(NC2Cc3ccccc3C2)cc(-c2ccc3ncsc3c2)n1`: 500 nM.
On to `CCCCC(CC)CNc1cc(-c2ccc3ncsc3c2)nc(C)n1` (stereo unspecified), for which the IC50 was 500 nM.
The value for `COc1cccc(-c2cc(NC(C)c3cccc(S(=O)(=O)N(CC#N)C(=O)OC(C)(C)C)c3)nc(C)n2)c1` (stereo unspecified) was greater than 1000 nM; that for `COc1cccc(-c2cc(NC(C)c3cccc(O)c3)nc(C)n2)c1` (stereo unspecified) was greater than 1000 nM; that for `Cc1nc(N[C@@H](C)c2ccc(Cl)cc2)cc(-c2ccc3ccn(C)c3c2)n1` was greater than 1000 nM.
The value for `CNC(=O)COc1cccc(C(C)Nc2cc(-c3cccc(OC)c3Cl)nc(C)n2)c1` (stereo unspecified) was 500 nM; that for `Cc1nc(NCCc2c[nH]cn2)cc(-c2ccc3ncsc3c2)n1` was greater than 1000 nM; that for `Cc1nc(NC(C)c2cccc(-c3cnn(C)c3)c2)cc(-c2ccc3[nH]ccc3c2)n1` (stereo unspecified) was 500 nM.
The value for `COC(=O)CNc1cccc(C(C)Nc2cc(-c3cccc(OC)c3)nc(C)n2)c1` (stereo unspecified) was greater than 1000 nM; that for `COc1cccc([C@H](C)Nc2cc(-c3cccc(OC)c3F)nc(C)n2)c1` was 500 nM.
With `COC(=O)CNS(=O)(=O)c1cccc(C(C)Nc2cc(-c3cccc(OC)c3)nc(C)n2)c1` (stereo unspecified), the IC50 is greater than 1000 nM.
Next, `COc1cccc([C@H](C)Nc2cc(-c3ccc4c(ccn4C)c3)nc(C)n2)c1`: greater than 1000 nM; `COc1cccc(-c2cc(NC(C)c3cccc(OCC#N)c3)nc(C)n2)c1` (stereo unspecified): 500 nM.
The value for `CCn1ccc2ccc(-c3cc(N[C@@H](C)c4cccc(OC)c4)nc(C)n3)cc21` was greater than 1000 nM; that for `Cc1nc(NC(C)c2cccnc2)cc(-c2ccc3ncsc3c2)n1` (stereo unspecified) was 500 nM; that for `COCCn1ccc2ccc(-c3cc(N[C@@H]4CCCc5ccccc54)nc(C)n3)cc21` was greater than 1000 nM.
Next, `Cc1cccc(-c2cc(NC(C)c3cccc(-c4cnn(C)c4)c3)nc(C)n2)c1` (stereo unspecified): 500 nM.
With `CC(C)CCC(C)NC1C=C(c2ccc3ncsc3c2)N=CN1C` (stereo unspecified), the IC50 was greater than 1000 nM.
`COC(=O)COc1cccc(C(C)Nc2cc(-c3cccc(OC)c3)nc(C)n2)c1` (stereo unspecified): the IC50 is greater than 1000 nM.
The value for `Cc1nc(NCCCC(C)(C)CO)cc(-c2ccc3ncsc3c2)n1` was greater than 1000 nM; that for `COc1cccc(-c2cc(N[C@@H]3CCCc4ccccc43)nc(C)n2)c1Cl` was 500 nM; that for `COc1ccc(Cl)c(-c2cc(N[C@@H]3CCCc4ccccc43)nc(C)n2)c1` was greater than 1000 nM.
The value for `COc1cccc(-c2cc(NC3CCc4ccccc43)nc(C)n2)c1Cl` (stereo unspecified) was 500 nM; that for `COc1cccc([C@H](C)Nc2cc(-c3cccc(F)c3)nc(C)n2)c1` was 500 nM; that for `COc1cccc(-c2cc(N[C@@H](C)c3cccc(C(F)(F)F)c3)nc(C)n2)c1` was greater than 1000 nM.
As for `COc1cccc(-c2cc(NC(C)c3cccc(Br)c3)nc(C)n2)c1Cl` (stereo unspecified), the IC50 was determined as 500 nM.

Values taken from ChEMBL document CHEMBL3727358, “Inhibitors of inducible form of 6-phosphofructose-2-kinase” (2014).
